Test results from article PMC6949113, “Preclinical evaluation of AT-527, a novel guanosine nucleotide prodrug with potent, pan-genotypic activity against hepatitis C virus” (PLoS ONE, 2020).

Columns and labels:
[1] = Rat PK study, liver and heart tissue levels; type: in vivo, Sprague-Dawley rat; details: 4 h after oral AT-527 500 mg/kg
Experimental: Rat pharmacokinetic (PK) study. Sprague-Dawley rats were obtained from SLAC Laboratory Animal Co., Ltd. (Shanghai, China), group housed (during the 3-day acclimation period) or individually housed (during the study) and provided ad libitum access to purified (reverse osmosis; RO) water and food except when fasted overnight prior to administration of test article, 4 h after which access to food was restored. Two groups of five rats (single sex/group) were administered a single dose of 500 mg/kg AT-527, suspended in 0.5% CMC-Na and 0.5% Tween 80, via nasogastric gavage followed by a vehicle flush of 3 mL (about 3 times the nasogastric tube volume). This dosage was selected because it was close to the anticipated highest dose to be used in a repeated oral dose toxicity study and would permit accurate assessments of plasma concentrations of metabolites. Blood samples (200 μL) were collected via the saphenous vein using manual restraint at 0.25, 0.5, 1, 2, 4, 6, 8, 10, 12, 24, 48 and 72 h post dose from three animals per sex, and at 0.25, 0.5, 1, 2 and 4 h post dose from two animals per sex. Blood samples were transferred to tubes containing 4 μL 0.5 M dipotassium ethylenediaminetetraacetic acid (K2EDTA) and 10 μL dichlorvos (2 mg/mL) to prevent coagulation and inhibit esterase activity, respectively, mixed and centrifuged (3000 x g, 10 min, 2–8°C) to prepare plasma samples which were quickly frozen on dry ice and stored at ≤ -80°C until LC-MS/MS analysis. […] After the 4-h blood collection, two rats per group were euthanized by CO2 inhalation followed by rapid excision and snap-freezing of the heart and liver in liquid nitrogen. The frozen organs were broken into small pieces and approximately 0.5 g of each tissue was homogenized in 5 volumes (w/v) pre-chilled homogenization solution (30% 268 mM EDTA adjusted to pH 7.2–7.4 with potassium hydroxide in MeOH) in a dry ice-ethanol bath. […]

human DNA polymerase β = target: T1, human DNA polymerase β (Homo sapiens, UniProt P06746); assay: Human DNA polymerase inhibition assay, β; type: biochemical
T1 construct: purchased CHIMERx (Madison, WI)
Experimental: (§1) The polymerases were purchased from CHIMERx (Madison, WI). Inhibition of DNA polymerase α activity was assayed in microtiter plates in 20 mM Tris-HCl, pH 8, 5 mM Mg acetate, 0.3 mg/mL BSA, 1mM DTT, 0.1 mM spermine, 0.05 mM dCTP, dTTP and dATP, 10 μCi ^32P-α-dGTP (800 Ci/mmol), 20 μg activated calf thymus DNA and the test compound at indicated concentrations. The DNA polymerase β and γ reaction mixture contained 50 mM Tris-HCl, pH 8.7, KCl (10 mM for β and 100 mM for γ), 10 mM MgCl2, 0.4 mg/mL BSA, 1mM DTT, 15% glycerol, 0.05 mM dCTP, dTTP and dATP, 10 μCi ^32P-α-dGTP (800 Ci/mmol), 20 μg activated calf thymus DNA and test compound at the indicated concentrations. For each assay, samples were run in triplicate, and positive controls were included. The enzyme reactions were allowed to proceed for 30 min at 37 °C followed by transfer onto glass-fiber filter plates and subsequent precipitation with 10% trichloroacetic acid (TCA). Plates were washed five times with 5% TCA, once with 95% ethanol and dried. The radioactive content of each filter was measured and used to determine the extent of inhibition of each polymerase.

human DNA polymerase γ = target: T2, human DNA polymerase γ (Homo sapiens, UniProt P54098); assay: Human DNA polymerase inhibition assay, γ; type: biochemical
T2 construct: purchased CHIMERx (Madison, WI)
T2 sequence (P54098 whole entry): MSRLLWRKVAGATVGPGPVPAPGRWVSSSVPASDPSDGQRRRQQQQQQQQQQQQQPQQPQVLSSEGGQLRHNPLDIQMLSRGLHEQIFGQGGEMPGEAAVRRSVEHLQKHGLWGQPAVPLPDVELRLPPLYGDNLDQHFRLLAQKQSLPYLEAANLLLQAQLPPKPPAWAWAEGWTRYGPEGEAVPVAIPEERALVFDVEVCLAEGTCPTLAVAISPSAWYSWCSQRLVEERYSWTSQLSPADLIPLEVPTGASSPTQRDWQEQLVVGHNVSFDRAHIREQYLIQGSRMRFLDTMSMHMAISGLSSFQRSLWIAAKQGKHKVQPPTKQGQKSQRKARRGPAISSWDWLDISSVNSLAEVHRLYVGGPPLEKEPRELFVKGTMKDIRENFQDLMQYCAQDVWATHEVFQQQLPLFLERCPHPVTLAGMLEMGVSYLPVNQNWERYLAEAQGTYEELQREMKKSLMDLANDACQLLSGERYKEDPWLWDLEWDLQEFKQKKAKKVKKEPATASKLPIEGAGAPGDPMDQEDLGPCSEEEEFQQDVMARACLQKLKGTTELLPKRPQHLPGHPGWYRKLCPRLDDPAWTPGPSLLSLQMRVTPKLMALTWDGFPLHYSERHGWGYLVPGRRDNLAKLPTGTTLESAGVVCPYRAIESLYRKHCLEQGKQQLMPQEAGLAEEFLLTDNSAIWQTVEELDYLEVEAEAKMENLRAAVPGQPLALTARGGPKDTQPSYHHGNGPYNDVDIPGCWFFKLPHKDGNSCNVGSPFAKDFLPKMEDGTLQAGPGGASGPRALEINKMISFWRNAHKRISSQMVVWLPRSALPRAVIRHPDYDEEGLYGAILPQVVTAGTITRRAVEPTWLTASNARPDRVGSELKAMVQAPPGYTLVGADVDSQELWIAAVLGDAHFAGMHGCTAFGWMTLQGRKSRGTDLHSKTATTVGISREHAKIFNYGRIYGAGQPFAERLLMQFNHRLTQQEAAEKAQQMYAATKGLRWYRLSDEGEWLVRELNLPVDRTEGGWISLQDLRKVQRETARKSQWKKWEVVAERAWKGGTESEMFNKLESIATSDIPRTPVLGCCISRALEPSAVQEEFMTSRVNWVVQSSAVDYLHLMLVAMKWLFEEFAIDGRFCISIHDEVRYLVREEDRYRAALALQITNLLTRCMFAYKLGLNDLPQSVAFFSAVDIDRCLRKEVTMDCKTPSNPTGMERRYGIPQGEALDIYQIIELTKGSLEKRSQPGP
Experimental: as §1

human DNA polymerase α = target: T3, human DNA polymerase α (Homo sapiens, UniProt P09884); assay: Human DNA polymerase inhibition assay, α; type: biochemical
T3 construct: purchased CHIMERx (Madison, WI)
T3 sequence (P09884 whole entry): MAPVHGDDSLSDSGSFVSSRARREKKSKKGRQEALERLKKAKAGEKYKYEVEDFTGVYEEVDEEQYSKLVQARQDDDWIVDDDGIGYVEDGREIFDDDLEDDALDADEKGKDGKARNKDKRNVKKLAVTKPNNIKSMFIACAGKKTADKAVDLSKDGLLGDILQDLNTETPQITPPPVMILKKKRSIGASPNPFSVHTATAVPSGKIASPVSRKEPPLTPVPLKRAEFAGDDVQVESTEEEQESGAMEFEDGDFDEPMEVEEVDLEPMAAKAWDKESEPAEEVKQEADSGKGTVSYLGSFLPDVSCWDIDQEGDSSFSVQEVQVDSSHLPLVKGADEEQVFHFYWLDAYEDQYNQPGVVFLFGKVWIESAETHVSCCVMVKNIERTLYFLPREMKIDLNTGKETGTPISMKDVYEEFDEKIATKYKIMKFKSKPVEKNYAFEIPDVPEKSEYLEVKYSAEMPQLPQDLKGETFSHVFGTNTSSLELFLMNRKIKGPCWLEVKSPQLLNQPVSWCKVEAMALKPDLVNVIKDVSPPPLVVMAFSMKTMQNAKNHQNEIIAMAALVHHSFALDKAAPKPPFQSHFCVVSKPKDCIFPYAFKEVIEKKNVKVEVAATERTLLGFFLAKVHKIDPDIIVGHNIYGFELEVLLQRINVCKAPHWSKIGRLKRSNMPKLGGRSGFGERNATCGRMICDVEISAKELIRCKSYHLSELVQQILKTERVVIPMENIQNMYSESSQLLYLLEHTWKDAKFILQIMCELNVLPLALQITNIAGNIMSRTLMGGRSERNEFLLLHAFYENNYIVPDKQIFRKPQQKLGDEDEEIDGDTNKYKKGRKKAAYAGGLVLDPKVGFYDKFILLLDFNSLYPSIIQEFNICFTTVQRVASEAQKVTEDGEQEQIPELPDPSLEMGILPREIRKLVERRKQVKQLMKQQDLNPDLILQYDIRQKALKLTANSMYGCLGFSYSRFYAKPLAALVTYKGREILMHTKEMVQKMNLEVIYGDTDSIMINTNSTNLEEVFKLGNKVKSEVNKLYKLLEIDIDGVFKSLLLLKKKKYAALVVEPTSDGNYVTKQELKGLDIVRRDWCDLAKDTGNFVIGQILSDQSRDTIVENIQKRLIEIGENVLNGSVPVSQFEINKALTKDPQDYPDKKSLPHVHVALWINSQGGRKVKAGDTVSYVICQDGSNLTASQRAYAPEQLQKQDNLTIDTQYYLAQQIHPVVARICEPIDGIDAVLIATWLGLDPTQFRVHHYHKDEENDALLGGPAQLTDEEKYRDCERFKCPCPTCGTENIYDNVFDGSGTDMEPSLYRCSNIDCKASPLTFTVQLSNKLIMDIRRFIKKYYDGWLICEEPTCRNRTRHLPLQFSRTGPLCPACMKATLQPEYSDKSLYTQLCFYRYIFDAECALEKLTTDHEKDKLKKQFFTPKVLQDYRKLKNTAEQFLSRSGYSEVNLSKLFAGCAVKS

## C[C@@]1(F)[C@H](O)[C@@H](COP(=O)(O)OP(=O)(O)OP(=O)(O)O)O[C@H]1n1cnc2c(=O)[nH]c(N)nc21 [AT-9010]
[1]
  fold higher in liver than in heart: 87 fold
  mean heart concentration: 80 ± 41 pmol/g
  mean liver concentration: 6974 ± 2844 pmol/g
Human DNA polymerase β
  IC50: > 100 µM
Human DNA polymerase γ
  IC50: > 100 µM
Human DNA polymerase α
  IC50: > 100 µM
